Measurements reported in article PMC12405493, “Selective ubiquitination of drug-like small molecules by the ubiquitin ligase HUWE1” (Nature Communications, 2025).

Experiments:
HEK293T cells = experiment: LC/MS/MS detection of ubiquitinated compound from cell lysates (Ub pull-down); assay type: cell-based, human; details: 15 μM, 1 h
Method: Samples for LC/MS/MS analyses of the ubiquitinated inhibitors from reconstituted HUWE1^FL-driven reactions were prepared by in-solution trypsin (Mass Spec Grade, Promega) digestion, instead of the gel-based LysC digestion procedure described above. […] In both cases, the samples were reduced and alkylated with 10 mM TCEP and 20 mM iodoacetamide at 37 °C in the dark for 60 min. An equal mixture of Sera-Mag SpeedBeads with hydrophilic and hydrophobic surfaces (GE Healthcare; 1:1 mix (v/v)) was washed twice with water and added to the sample at 50:1(w/w) resin-to-protein ratio. […] The resulting peptides were then dried, dissolved in 5% ACN/0.1% FA (both v/v), and measured on a hybrid quadruple-Obitrap Exploris480 mass spectrometer (Thermo Fisher Scientific) coupled to an Ultimate 3000 UHPLC system (Thermo Fisher Scientific). […]
Sample preparation for LC/MS/MS detection of ubiquitinated compounds from cell lysates was performed according to the following workflow: HEK293T cells at 70% confluency were treated with 15 μM BI8626 or an equal volume of DMSO for 1 h. […] After 20 min incubation on a rotating wheel at 4 °C, the lysate was cleared by centrifugation, the total protein concentrations determined, and the sample (2.3 mg) diluted with 10 mM Tris (pH 7.5), 150 mM NaCl and 0.5 mM EDTA to a final volume of 1 mL. […]

[1] = molecular target: T1, vinylthioether-linked HUWE1^HECT-Ub complex (Homo sapiens, UniProt Q7Z6Z7); experiment: Isothermal titration calorimetry (ITC) with HUWE1^HECT~Ub proxy; assay type: binding; details: 25 °C
T1 construct: The preparation of the vinylthioether-linked HUWE1^HECT-Ub complex was also previously described; made in house; host or cells: bacteria (components)
Method: (§1) ITC was performed with an ITC200 calorimeter (MicroCal) at 25 °C. The proteins were dialyzed into 20 mM HEPES (pH 7.5), 150 mM NaCl, and 1 mM β-mercaptoethanol (β-ME) overnight. 600 μM HUWE1^HECT or HUWE1^HECT-Ub were applied to the cell and a 10-fold molar excess of BI8626 to the syringe (and vice versa). The reference cell was filled with buffer. Titration experiments included 1 injection of 1.5 μL, followed by 15 injections of 2.4 μL in 3-s intervals, with 150-s spacings between individual injections. The reference power was set to 12 μcal s^−1 and the stirring speed to 270 rpm. To control for instrument functionality, 5 mM CaCl2 were titrated into 0.4 mM EDTA in 10 mM MES (pH 5.6). Data were plotted with OriginPro v.2020b (OriginLab).

HUWE1^HECT = molecular target: T2, HUWE1^HECT (Homo sapiens, UniProt Q7Z6Z7); experiment: Isothermal titration calorimetry (ITC) with HUWE1^HECT; assay type: binding; details: 25 °C
T2 construct: the isolated HECT domain of HUWE1 (HUWE1^HECT); made in house
T2 sequence (Q7Z6Z7 4038-4374 limits assumed): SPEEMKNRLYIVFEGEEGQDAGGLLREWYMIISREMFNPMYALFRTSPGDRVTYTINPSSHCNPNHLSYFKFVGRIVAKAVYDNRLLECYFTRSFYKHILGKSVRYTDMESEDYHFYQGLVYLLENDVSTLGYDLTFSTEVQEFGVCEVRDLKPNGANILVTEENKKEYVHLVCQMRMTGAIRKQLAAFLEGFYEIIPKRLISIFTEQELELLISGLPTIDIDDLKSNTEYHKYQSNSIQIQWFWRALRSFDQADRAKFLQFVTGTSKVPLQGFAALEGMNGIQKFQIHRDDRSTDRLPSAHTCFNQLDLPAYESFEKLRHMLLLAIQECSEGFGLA
Method: as §1

## NCc1cccc(CNc2ncnc3c(N4CCN(Cc5ccccc5)CC4)ncnc23)c1 [BI8626]
HEK293T cells
  Compound ubiquitination in cells (targeted MS/MS after Ub pull-down): indeed ubiquitinated in cells
[1]
  Interaction with the HUWE1^HECT~Ub proxy by ITC: No binding was detected
HUWE1^HECT
  Interaction with HUWE1^HECT by ITC: No binding was detected
